According to PubChem BioAssay (NCI):
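Five concentrations, 48 hours, 96-well plates. TGI: total growth inhibition.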

Key:
Experiment in all cases: inhibition of tumour cell growth, NCI panel, 48 h
[1] = test system: MOLT-4 leukemia
[2] = test system: A549 NSCLC
[3] = test system: U251 CNS
[4] = test system: ACHN renal
[5] = test system: SK-MEL-28 melanoma
[6] = test system: HL-60(TB) leukemia
[7] = test system: SF-268 CNS
[8] = test system: EKVX NSCLC
[9] = test system: CCRF-CEM leukemia
[10] = test system: UACC-257 melanoma
[11] = test system: OVCAR-8 ovarian
[12] = test system: HS 578T breast
[13] = test system: OVCAR-5 ovarian
[14] = test system: MDA-N
[15] = test system: OVCAR-4 ovarian
[16] = test system: RPMI-8226 leukemia
[17] = test system: SF-539 CNS
[18] = test system: TK-10 renal
[19] = test system: COLO 205 colon
[20] = test system: SK-OV-3 ovarian
[21] = test system: SK-MEL-5 melanoma
[22] = test system: SN12C renal
[23] = test system: HCT-116 colon
[24] = test system: SF-295 CNS
[25] = test system: HOP-62 NSCLC
[26] = test system: SNB-19 CNS
[27] = test system: MDA-MB-435
[28] = test system: MDA-MB-231 breast
[29] = test system: NCI-H522 lung
[30] = test system: HCT-15 colon
[31] = test system: SR leukemia
[32] = test system: 786-0 renal
[33] = test system: M14 melanoma
[34] = test system: MCF7 breast
[35] = test system: PC-3 prostate
[36] = test system: SNB-75 CNS
[37] = test system: NCI-H460 lung
[38] = test system: NCI/ADR-RES ovarian
[39] = test system: T-47D breast
[40] = test system: IGROV1 ovarian
[41] = test system: HT29 colon
[42] = test system: UO-31 renal
[43] = test system: KM12 colon
[44] = test system: K-562 leukemia
[45] = test system: HCC-2998 colon
[46] = test system: SW-620 colon
[47] = test system: LOX IMVI melanoma
[48] = test system: NCI-H226 lung
[49] = test system: UACC-62 melanoma
[50] = test system: HOP-92 NSCLC
[51] = test system: NCI-H23 lung
[52] = test system: RXF 393 renal
[53] = test system: SK-MEL-2 melanoma
[54] = test system: A498 renal
[55] = test system: MALME-3M melanoma
[56] = test system: CAKI-1 renal
[57] = test system: DU-145 prostate
[58] = test system: OVCAR-3 ovarian
[59] = test system: BT-549 breast

## CC(=NCCN(CCN=C(C)c1c(O)cc(C)oc1=O)CCN=C(C)c1c(O)cc(C)oc1=O)c1c(O)cc(C)oc1=O
[1]
  TGI: > 100 µM
[2]
  TGI: > 100 µM
[3]
  TGI: > 100 µM
[4]
  TGI: > 100 µM
[5]
  TGI: > 100 µM
[6]
  TGI: > 100 µM
[7]
  TGI: > 100 µM
[8]
  TGI: > 100 µM
[9]
  TGI: > 100 µM
[10]
  TGI: > 100 µM
[11]
  TGI: > 100 µM
[12]
  TGI: > 100 µM
[13]
  TGI: > 100 µM
[14]
  TGI: > 100 µM
[15]
  TGI: > 100 µM
[16]
  TGI: > 100 µM
[17]
  TGI: > 100 µM
[18]
  TGI: > 100 µM
[19]
  TGI: > 100 µM
[20]
  TGI: > 100 µM
[21]
  TGI: > 100 µM
[22]
  TGI: > 100 µM
[23]
  TGI: > 100 µM
[24]
  TGI: > 100 µM
[25]
  TGI: > 100 µM
[26]
  TGI: > 100 µM
[27]
  TGI: > 100 µM
[28]
  TGI: > 100 µM
[29]
  TGI: > 100 µM
[30]
  TGI: > 100 µM
[31]
  TGI: > 100 µM
[32]
  TGI: > 100 µM
[33]
  TGI: > 100 µM
[34]
  TGI: > 100 µM
[35]
  TGI: > 100 µM
[36]
  TGI: > 100 µM
[37]
  TGI: > 100 µM
[38]
  TGI: > 100 µM
[39]
  TGI: > 100 µM
[40]
  TGI: > 100 µM
[41]
  TGI: > 100 µM
[42]
  TGI: > 100 µM
[43]
  TGI: > 100 µM
[44]
  TGI: > 100 µM
[45]
  TGI: > 100 µM
[46]
  TGI: > 100 µM

## S=C1C(=Nc2ccccc2)N(c2ccccc2)/C(=N\c2ccccn2)N1c1ccccc1
[1]
  TGI: > 100 µM
[2]
  TGI: 38.6 µM
[3]
  TGI: 29.5 µM
[4]
  TGI: 15.9 µM
[5]
  TGI: 30.5 µM
[47]
  TGI: 21.9 µM
[6]
  TGI: > 100 µM
[48]
  TGI: 36.8 µM
[7]
  TGI: 31.4 µM
[8]
  TGI: 29.1 µM
[9]
  TGI: > 100 µM
[49]
  TGI: 17.1 µM
[10]
  TGI: 27.3 µM
[50]
  TGI: 25.7 µM
[11]
  TGI: 27.5 µM
[12]
  TGI: 39.5 µM
[13]
  TGI: 29.9 µM
[51]
  TGI: 25 µM
[14]
  TGI: 18.5 µM
[15]
  TGI: 29.5 µM
[16]
  TGI: > 100 µM
[17]
  TGI: 20.9 µM
[18]
  TGI: 28.8 µM
[19]
  TGI: 22.7 µM
[20]
  TGI: 36 µM
[52]
  TGI: 22.4 µM
[21]
  TGI: 27.2 µM
[22]
  TGI: 24 µM
[23]
  TGI: 30.4 µM
[53]
  TGI: 24.6 µM
[24]
  TGI: 29.9 µM
[25]
  TGI: 30.1 µM
[54]
  TGI: 30.4 µM
[26]
  TGI: 29.9 µM
[27]
  TGI: 28.5 µM
[28]
  TGI: 31.6 µM
[29]
  TGI: 3.59 µM
[30]
  TGI: 27.7 µM
[31]
  TGI: 60.8 µM
[32]
  TGI: 27.6 µM
[55]
  TGI: 30.6 µM
[35]
  TGI: 25.4 µM
[36]
  TGI: 28.3 µM
[56]
  TGI: 29 µM
[37]
  TGI: 27 µM
[38]
  TGI: 33.7 µM
[39]
  TGI: 41.5 µM
[57]
  TGI: 35 µM
[40]
  TGI: 26.2 µM
[41]
  TGI: 24.8 µM
[42]
  TGI: 26.1 µM
[43]
  TGI: 25.5 µM
[44]
  TGI: > 100 µM
[45]
  TGI: 27.1 µM
[46]
  TGI: 27.9 µM

## O=c1[nH]c(=O)n(COCc2ccccc2)c2ccc([N+](=O)[O-])cc12
[1]
  TGI: > 100 µM
[2]
  TGI: > 100 µM
[3]
  TGI: > 100 µM
[4]
  TGI: > 100 µM
[5]
  TGI: > 100 µM
[47]
  TGI: > 100 µM
[6]
  TGI: > 100 µM
[48]
  TGI: > 100 µM
[8]
  TGI: > 100 µM
[9]
  TGI: > 100 µM
[49]
  TGI: > 100 µM
[10]
  TGI: > 100 µM
[50]
  TGI: > 100 µM
[11]
  TGI: > 100 µM
[13]
  TGI: > 100 µM
[14]
  TGI: > 100 µM
[15]
  TGI: > 100 µM
[58]
  TGI: > 100 µM
[17]
  TGI: > 100 µM
[18]
  TGI: > 100 µM
[19]
  TGI: > 100 µM
[20]
  TGI: > 100 µM
[52]
  TGI: > 100 µM
[21]
  TGI: > 100 µM
[22]
  TGI: > 100 µM
[23]
  TGI: > 100 µM
[53]
  TGI: > 100 µM
[24]
  TGI: > 100 µM
[54]
  TGI: > 100 µM
[27]
  TGI: > 100 µM
[28]
  TGI: > 100 µM
[30]
  TGI: > 100 µM
[31]
  TGI: > 100 µM
[32]
  TGI: > 100 µM
[33]
  TGI: > 100 µM
[34]
  TGI: > 100 µM
[35]
  TGI: > 100 µM
[36]
  TGI: > 100 µM
[56]
  TGI: > 100 µM
[38]
  TGI: > 100 µM
[57]
  TGI: > 100 µM
[40]
  TGI: > 100 µM
[41]
  TGI: > 100 µM
[42]
  TGI: > 100 µM
[43]
  TGI: > 100 µM
[44]
  TGI: > 100 µM
[45]
  TGI: > 100 µM
[46]
  TGI: > 100 µM

## CCCn1c(=O)c2ccccc2[n+]2c(-c3ccc([N+](=O)[O-])cc3)csc12
[1]
  TGI: 79.9 µM
[2]
  TGI: > 100 µM
[3]
  TGI: > 100 µM
[4]
  TGI: > 100 µM
[47]
  TGI: 51.3 µM
[6]
  TGI: 57.9 µM
[48]
  TGI: > 100 µM
[7]
  TGI: > 100 µM
[8]
  TGI: > 100 µM
[9]
  TGI: 82.5 µM
[49]
  TGI: > 100 µM
[10]
  TGI: > 100 µM
[50]
  TGI: > 100 µM
[11]
  TGI: 83.4 µM
[12]
  TGI: > 100 µM
[13]
  TGI: > 100 µM
[51]
  TGI: > 100 µM
[14]
  TGI: > 100 µM
[15]
  TGI: > 100 µM
[16]
  TGI: 55.7 µM
[17]
  TGI: 49.2 µM
[19]
  TGI: > 100 µM
[20]
  TGI: > 100 µM
[52]
  TGI: 55.3 µM
[21]
  TGI: 45.7 µM
[22]
  TGI: > 100 µM
[23]
  TGI: > 100 µM
[53]
  TGI: > 100 µM
[24]
  TGI: > 100 µM
[25]
  TGI: 80.8 µM
[54]
  TGI: 74.4 µM
[26]
  TGI: > 100 µM
[27]
  TGI: > 100 µM
[28]
  TGI: > 100 µM
[29]
  TGI: 45.5 µM
[30]
  TGI: > 100 µM
[32]
  TGI: 76.3 µM
[33]
  TGI: > 100 µM
[34]
  TGI: > 100 µM
[35]
  TGI: > 100 µM
[36]
  TGI: 94.6 µM
[56]
  TGI: > 100 µM
[37]
  TGI: > 100 µM
[38]
  TGI: 36.5 µM
[39]
  TGI: > 100 µM
[59]
  TGI: > 100 µM
[57]
  TGI: > 100 µM
[40]
  TGI: > 100 µM
[41]
  TGI: > 100 µM
[42]
  TGI: 97.3 µM
[43]
  TGI: 78.3 µM
[44]
  TGI: 69.4 µM
[45]
  TGI: > 100 µM
[46]
  TGI: > 100 µM
